US20250275993A1, “GLYCOSYLATION INHIBITORS AS THERAPEUTICS FOR STROKE” (The Regents of the University of California, priority 2022, published 2025)

Columns and labels:
ERK and AKT = experiment: Western blot of ERK and AKT activation in HUVEC and hDMVECs; assay type: cell-based, human; conditions: 40 μM
Procedure: Cells were allowed to reach-80% confluency in 12-well plates. […] At various time points, plates were taken out of the incubator and kept on ice. Cell monolayers were first washed once with ice-cold PBS before lysis with 250 μI of Pierce RIPA buffer (ThermoFisher Scientific, Rockford, IL) or use 50 mM Tris-HCl (pH 7.6), 150 mM NaCl, 10% Glycerol, 1% NP-40 containing protease/Phosphatase inhibitor cocktail (100×) (Cell signaling, #5872). Lysates were collected and mixed with 4× Bolt LDS Sample Buffer (Novex, Carlsbad, CA) in the presence of Halt protease inhibitors and phosphatase inhibitor cocktail (ThermoFisher scientific, #NP0007). The samples were subjected to SDS-PAGE (Bolt 4-12% Bis-Tris Plus, Invitrogen) using Bolt MES SDS running buffer or NuPAGE 3-8% Tris-Acetate gel using Tris-Acetate SDS running buffer (Novex). HUVECs (passage 6-8) were plated in EBM-2 basal medium (Lonza) with 0.2% FBS. Following overnight culture, cells were serum-starved in EBM-2 medium for 4 hrs prior to treatment with 50 ng/ml of VEGF165 or vehicle controls for various lengths. Equal amounts of protein lysates were analyzed by SDS-PAGE and blotted with the indicated antibodies. Proteins were transferred using Tris-Glycine buffer with 20% Methanol (Proteonomics grade) (Apex BioResearch Products). […]

bovine pituitary cells = experiment: Bovine pituitary cell proliferation assay; assay type: cell-based; conditions: alone or in combination with growth factors
Procedure: Proliferation assays with fibroblasts were done in low-glucose DMEM containing 1% FBS, with or without 10 ng/ml bFGF, or 100 ng/ml human EGF and the assay was ended at day 3. ARPE-19 cells were gently lifted with 0.025% trypsin and plated in RtEGM media (Clonetics) containing 2% FBS, L-glutamine, human bFGF and GA-1000. Once cells were attached to plates, serum-free RtEGM media was used to maintain the cultures. For proliferation assays, 1500 human RPE cells were plated into 96-well plates in low-glucose DMEM containing 1% FBS. A673, U87MG, Calu6 and AML12 cells were grown until confluent and were then harvested and re-suspended in appropriate assay media. For proliferation assays, cells were plated at the density of 1000-2000 cells/well in low-glucose DMEM containing 5% FBS or otherwise stated. Bovine pituitary cells (pituitary folliculostellate cells) were isolated as previously described. For proliferation assays with human epidermal keratinocytes, human DMVECs and human dermal fibroblast cells, 1000 cells/well were plated in low-glucose DMEM containing 1% FBS with or without various growth factors. The assay was ended at day 3 for bovine pituitary cells and at day 4 for all the other cell types. […] Four days later, tumor cell growth was measured by the MTS assay (Promega, Madison, WI), a colorimetric assay that measures metabolic activity of viable cells. […]

[1] = system: complex N-glycans of BCECs; experiment: Monosaccharide and sialic acid composition analysis of BCECs; assay type: cell-based, bovine; conditions: fucose 8 hours, mannose 12 hours, galactose 24 hours, Neu5Ac 8 and 24 hours
Procedure: Monosaccharide composition analysis was done using HPAEC-PAD (Thermo-Dionex ICS3000) and nmole amount of each monosaccharide present in 25 μg of protein was calculated. Samples were hydrolyzed using 2 N trifluoroacetic acid (TFA) at 100° C. for 4 hrs. Followed by removal of acid using dry nitrogen flush. To ensure complete removal of acid, samples were co-evaporated twice with 100 μl of 50% isopropyl alcohol (IPA). Finally, the samples were dissolved in Milli-Q water and injected on HPAEC-PAD. Monosaccharide profile was done using Dionex CarboPac PAI column (250 mm×4 mm; with 50 mm×4 mm guard column). An isocratic solvent mixture of 19 mM sodium hydroxide with 0.95 mM sodium acetate was used at a flow rate of 1 ml per minute for 25 mins. Data were acquired using manufacture supplied standard Quad waveform for carbohydrates. All neutral and amino sugars were identified and quantified by comparing with authentic monosaccharide standard mixture consisting of L-fucose, D-galactosamine, D-glucosamine, D-galactose, D-glucose and D-mannosc. Mild acid hydrolysis was used to release sialic acid. Briefly, samples were treated with 2 M acetic acid at 80° C. for 3 hrs followed by removal of excess acid using speed vacuum. […] Known amount of standard Neu5Ac was used to quantify amount of sialic acid in samples.

skin wound = experiment: Skin wound healing model (splinted wound); assay type: in vivo, mouse; conditions: topical 20 μg daily; mice; PBS group 81.5%
Excerpt: The model has been previously described. Briefly, C57BL/6 female mice (8-10 weeks old) were obtained from Jackson labs (Sacramento, CA). A fresh, full-thickness punch wound (4 mm diameter) using a punch (Acu Punch, Acuderm inc. Ft. Lauderdale, FL) splinted with a sterile neoprene ring (6-mm outer diameter and 4-mm inner diameter), fastened with 5-6 sutures (4-0 nylon) under the influence of Isoflurane was created on the back of the animal in a Class II Biological Safety Cabinet. For all surgical procedures, sterile technique was followed. Buprenorphine was given subcutaneously prior to awakening from anesthesia for anticipated pain. Mice were monitored until fully awake and were housed individually to minimize damage/biting/fighting to the surgical site. […] Treatment agents were prepared in PBS, sterile-filtered and 25 μl solution was applied daily directly to a wound bed for the first 4-5 days under the influence of Isoflurane, followed by daily observation. Wound closure was monitored by regular imaging and the wound area was quantified using ImageJ (National Institutes of Health, Bethesda, MD, USA). […] Epithelial gap was measured histomorphometrically using AxioVision LE Rel.4.4 software. […] Small vessels stained positive for CD31 were counted microscopically on 10 fields (20×) taken around the wound.

Row | Structure (SMILES) | activation of ERK and AKT in human ECs by glycosylation inhibitors (ERK and AKT) | proliferation of bovine pituitary cells (bovine pituitary cells) | fucose, mannose, galactose and Neu5Ac content [1] | average closure of the wound on day 4 (skin wound) [%]
1 | O=C1N[C@@H]2[C@@H](O)[C@@H](O)[C@H](O)[C@@H](CO)N2C1=O [Kif, Kifunensine, reference compound] | significantly activate ERK and AKT | – | – | –
2 | N[C@H](C=O)[C@@H](O)[C@H](O)[C@H](O)CO [ManN, 2-Amino-2-deoxy-D-mannose] | – | no increases in proliferation | significant decrease | 75.6
